Test results: ChEMBL document CHEMBL1142986, “Synthesis of valiolamine and some precursors for bioactive carbaglycosylamines from (-)-vibo-quercitol produced by biogenesis of myo-inositol” (J Nat Prod, 2007)

Target: Alpha-glucosidase MAL12 (Saccharomyces cerevisiae S288c, UniProt P53341)
Assay: Inhibition of baker's yeast alpha-glucosidase

Chain of Alpha-glucosidase MAL12 (P53341 whole entry): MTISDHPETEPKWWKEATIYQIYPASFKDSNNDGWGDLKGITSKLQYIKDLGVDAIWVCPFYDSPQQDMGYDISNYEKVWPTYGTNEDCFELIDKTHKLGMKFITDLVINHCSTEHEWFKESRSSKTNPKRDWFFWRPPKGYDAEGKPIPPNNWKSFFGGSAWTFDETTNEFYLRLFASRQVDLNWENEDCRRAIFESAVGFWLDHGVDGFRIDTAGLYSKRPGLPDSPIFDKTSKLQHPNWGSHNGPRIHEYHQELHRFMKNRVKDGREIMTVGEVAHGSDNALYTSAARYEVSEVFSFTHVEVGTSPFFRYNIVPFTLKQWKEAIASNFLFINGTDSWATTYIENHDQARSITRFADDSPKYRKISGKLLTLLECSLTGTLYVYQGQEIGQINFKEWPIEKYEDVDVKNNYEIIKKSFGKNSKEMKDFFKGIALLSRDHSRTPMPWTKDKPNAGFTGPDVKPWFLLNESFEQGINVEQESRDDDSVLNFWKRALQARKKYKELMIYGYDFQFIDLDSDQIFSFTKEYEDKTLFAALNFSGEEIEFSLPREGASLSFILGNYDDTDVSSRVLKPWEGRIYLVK

N[C@@H]1C[C@](O)(CO)[C@@H](O)[C@H](O)[C@H]1O
IC50: 36 µM
